Read-outs that look alike come from different tables or passages of the source.
Tests used:
[1] = system: D(II) domain of human FGF receptor 1; assay: Microplate thermal shift assay for ligands binding to D(II) FGFR1, fluorescence emission as signal
From the text: The microplate thermal-shift assay was employed to test the binding of heparin 5000 and pentosan PSO4 to the known heparin binding site in the D(II) domain of fibroblast growth factor receptor 1 (FGFR1). D(II) FGFR1 is a 124 residue domain which is responsible for most of the free energy of binding for bFGF. D(II) FGFR1 was cloned and expressed in E. coli. Recombinant D(II) FGFR1 was renatured from inclusion bodies essentially as described (Wetmore, D. R. et al., Proc. Soc. Mtg., San Diego, Calif. (1994)), except that a hexa-histidine tag was included at the N-terminus to facilitate recovery by affinity chromatography on a Ni^2+ chelate column (Janknecht, R. et al., Natl. Acad. Sci. USA 88:8972-8976 (1991)). D(II) FGFR1 was further purified on a heparin-sepharose column (Kan, M. et al., Science 259:1918-1921 (1993); Pantoliano, M. W. et al., Biochemistry 33:10229-10248 (1994)). Purity was >95%, as judged by SDS-PAGE. The D(II) FGFR1 protein was concentrated to 12 mg/mL (˜1 mM) and stored at 4° C.
The D(II) FGFR1 protein was dissolved in an ANS solution to a concentration of […] (70 μM). The quantum yield for ANS bound to the denatured form of D(II) FGFR1 was lower than the quantum yield for ANS bound to human α-thrombin. Because ANS fluorescence is very environment dependent (see Lakowicz, I. R. Principles of Fluorescence Spectroscopy, Plenum Press, New York (1983)), the quantum yield observed for the denaturation of different proteins will vary. For D(II) FGFR1, the signal for the turbidity version of the assay, however, was nearly undetectable. Despite the decreased sensitivity for D(II) FGFR1, ANS rescued this system for the microplate assay. A similar-result was obtained for Factor Xa, except that the fluorescence quantum yield for ANS bound to denatured Factor Xa was almost as good as it was for human α-thrombin.

[2] = target: T1, heparin binding site of human α-thrombin (Homo sapiens, UniProt P00734); assay: Microplate thermal shift assay, ligands binding to the heparin binding site, turbidity as signal
T1 construct: A stock human α-thrombin solution; purchased Enzyme Research Labs
From the text: Assays for ligands that bind to the heparin binding site of human α-thrombin are more difficult to perform than assays for ligands that bind to the active site of human α-thrombin. At the heparin binding site, no substrate is hydrolyzed, so no spectrophotometric signal can be amplified for instrumental detection. Heparin activity is usually estimated in biological clotting time assays. […] Thus, heparin binding to human α-thrombin represents the kind of challenge encountered with the vast majority of non-enzyme receptor/ligand binding events, which are commonly observed for hormone/receptor interactions, repressor/DNA interactions, neurotransmitter/receptor interactions, etc. Several heparin-like sulfated oligosaccharides and sulfated naphthalene compounds were assayed by the microplate thermal shift assay. Using the thermal shift assay, it was possible to use a single compound per well to quickly rank the compounds in order of increasing binding affinity, with Kd's ranging over three orders of magnitude (see Table 4). Like the experiment in Example 1, the thermal shift assay results agreed closely with the results obtained through an alternative method, which required a series of laborious (15 to 20 single determinations) fluorescence quench assays over a wide range of concentrations of low MW heparin (Olson, S. T. et al., J. Biol. Chem. 266:6342-6352 (1991)).

[3] = literature; cited from earlier work
[4] = target: T2, acidic fibroblast growth factor (aFGF) (Homo sapiens, UniProt P05230); assay: Microplate thermal shift assay for ligands binding to aFGF, turbidity as signal
T2 construct: host or cells: E. coli
From the text: The second therapeutic receptor tested in the microplate thermal shift assay was acidic fibroblast growth factor (aFGF), a growth factor that plays a key role in angiogenesis (Folkman, J. et al., J. Biol. Chem. 267:10931-10934 (1992)). A synthetic gene for this protein was purchased from R&D Systems (Minneapolis, Minn.), and was cloned and expressed in E. coli using methods similar to those described for basic fibroblast growth factor (bFGF) (Thompson, L. D. et al., Biochemistry 33:3831-3840 (1994); Pantoliano, M. W. et al., Biochemistry 33:10229-10248 (1994); Springer, B. A. et al., J. Biol. Chem. 269:26879-26884 (1994)). Recombinant aFGF was then purified by heparin-sepharose affinity chromatography as described (Thompson, L. D. et al., Biochemistry 33:3831-3840 (1994)). aFGF is also known to bind heparin/heparan, which is a cofactor for mitogenic activity. […] A microplate thermal assay of these compounds was set up in a way similar to that described above for human α-thrombin. […] The affinity constants covered a fairly broad range of binding affinities, with pentosan PSO4 showing the highest affinity.

[5] = target: T3, heparin binding site of basic fibroblast growth factor (bFGF) (Homo sapiens, UniProt P09038); assay: Microplate thermal shift assay for ligands binding to bFGF; conditions: read-out: binding affinity
T3 construct: host or cells: E. coli
From the text: The microplate thermal shift assay was used to assess ligands for binding to the heparin binding site of basic fibroblast growth factor (bFGF). The gene for bFGF was purchased from R&D Systems and was cloned and expressed in E. coli as previously described (Thompson, L. D. et al., Biochemistry 33:3831-3840 (1994); Pantoliano, M. W. et al., Biochemistry 33:10229-10248 (1994); Springer, B. A. et al., J. Biol. Chem. 269:26879-26884 (1994)).

D(II)-D(III) FGFR1 = conditions: titrating calorimetry, read-out: Kd (298° K) Literature; cited from earlier work
bFGF = bFGF (Homo sapiens, UniProt P09038); conditions: binding to bFGF by isothermal titrating calorimetry; read-out: Ki (298° K) Literature; cited from earlier work
[6] = many effects described as coagulation anomalies; cited from earlier work
[7] = equation (1), estimated ΔHu 60.0 kcal/mole, ΔCpu 0.95 kcal/mole-°K, read-out: Kd at Tm

Sequence of D(II) domain of human FGF receptor 1 (P11362 158-246 limits assumed): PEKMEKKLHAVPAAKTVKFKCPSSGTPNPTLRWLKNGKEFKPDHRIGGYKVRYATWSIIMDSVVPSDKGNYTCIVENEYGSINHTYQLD
T2 sequence (P05230 whole entry, species assumed): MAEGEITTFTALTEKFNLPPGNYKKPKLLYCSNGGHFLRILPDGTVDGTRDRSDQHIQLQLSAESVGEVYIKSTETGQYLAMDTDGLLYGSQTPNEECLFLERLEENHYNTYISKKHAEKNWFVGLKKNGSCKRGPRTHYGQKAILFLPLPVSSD
Sequence of D(II)-D(III) FGFR1 (P11362 150-254 limits assumed): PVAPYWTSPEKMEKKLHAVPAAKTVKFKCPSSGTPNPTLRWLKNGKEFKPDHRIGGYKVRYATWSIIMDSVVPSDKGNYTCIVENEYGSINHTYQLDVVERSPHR
T3 sequence (P09038 134-288, species assumed): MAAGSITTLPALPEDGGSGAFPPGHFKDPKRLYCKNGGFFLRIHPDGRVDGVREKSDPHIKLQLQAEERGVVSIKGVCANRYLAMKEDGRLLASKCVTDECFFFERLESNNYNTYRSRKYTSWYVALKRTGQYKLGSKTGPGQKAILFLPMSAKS
Sequence of bFGF (P09038 134-288, species assumed): as above

pentosan polysulfate [Pentosan PSO4]
Tm ([1]; D(II) FGFR1 70 μM, 136 μM ANS, ligand 150-156 μM): 319.4 ° K
Kd [1, 7]: 19100 nM
Kd ([1]; equation (3), ΔHL −12.1 (pentosan PSO4) and −7.48 kcal/mole (heparin 5000), read-out: Kd at 298° K Observed): 4900 nM
Kd ([2]; calculated with equation (1), read-out: Kd at Tm): 2420 nM
Kd ([2]; estimated with equation (3), ΔHL estimated −10.0 kcal/mole, read-out: Kd at 298° K Observed): 427 nM
affinity at Tm, fold higher than the affinity of heparin 5000 ([2]; thermal shift assay, at Tm): 7 fold
Tm ([2]; thrombin/ligand complex, 11 μM thrombin, ligand 40-102 μM, turbidity): 332.15 ° K
anticoagulant properties [3]: anticoagulant properties
Tm ([4]; aFGF/ligand, aFGF 0.25 mg/mL, ligand 47-200 μM, turbidity): 336.15 ° K
Kd [4, 7]: 208 nM
Kd ([4]; equation (3), ΔHL estimated −10.0 kcal/mole, read-out: Kd at 298° K Observed): 31 nM
Kd [5]: 55 nM
Kd (D(II)-D(III) FGFR1): 10900 nM
Ki (bFGF): 88 nM
outcome of clinical trials [6]: discounted due to toxic effects

Source: patent US20020114734A1, “Microplate thermal shift assay apparatus for ligand development and multi-variable protein chemistry optimization” (priority 1996, published 2002)
